How the values were obtained:
Assay in all cases: radiometric filter-binding kinase assay, Kinase HotSpot
Conditions in all cases: compound 0.5 µM; ATP 10 µM
[1] = target: EPHA3 (human) (UniProt P29320)
[2] = target: MAP3K11 (human) (UniProt Q16584)
[3] = target: RPS6KA1 KD1 KD2 (human) (UniProt Q15418)
[4] = target: SGK2 (human) (UniProt Q9HBY8)
[5] = target: MYLK2 (human) (UniProt Q9H1R3)
[6] = target: NLK (human) (UniProt Q9UBE8)
[7] = target: ERBB4 (human) (UniProt Q15303)
[8] = target: HIPK4 (human) (UniProt Q8NE63)
[9] = target: EGFR (human) (UniProt P00533)
[10] = target: NEK1 (human) (UniProt Q96PY6)
NEK1 (human), sequence (Q96PY6 whole entry, looked up): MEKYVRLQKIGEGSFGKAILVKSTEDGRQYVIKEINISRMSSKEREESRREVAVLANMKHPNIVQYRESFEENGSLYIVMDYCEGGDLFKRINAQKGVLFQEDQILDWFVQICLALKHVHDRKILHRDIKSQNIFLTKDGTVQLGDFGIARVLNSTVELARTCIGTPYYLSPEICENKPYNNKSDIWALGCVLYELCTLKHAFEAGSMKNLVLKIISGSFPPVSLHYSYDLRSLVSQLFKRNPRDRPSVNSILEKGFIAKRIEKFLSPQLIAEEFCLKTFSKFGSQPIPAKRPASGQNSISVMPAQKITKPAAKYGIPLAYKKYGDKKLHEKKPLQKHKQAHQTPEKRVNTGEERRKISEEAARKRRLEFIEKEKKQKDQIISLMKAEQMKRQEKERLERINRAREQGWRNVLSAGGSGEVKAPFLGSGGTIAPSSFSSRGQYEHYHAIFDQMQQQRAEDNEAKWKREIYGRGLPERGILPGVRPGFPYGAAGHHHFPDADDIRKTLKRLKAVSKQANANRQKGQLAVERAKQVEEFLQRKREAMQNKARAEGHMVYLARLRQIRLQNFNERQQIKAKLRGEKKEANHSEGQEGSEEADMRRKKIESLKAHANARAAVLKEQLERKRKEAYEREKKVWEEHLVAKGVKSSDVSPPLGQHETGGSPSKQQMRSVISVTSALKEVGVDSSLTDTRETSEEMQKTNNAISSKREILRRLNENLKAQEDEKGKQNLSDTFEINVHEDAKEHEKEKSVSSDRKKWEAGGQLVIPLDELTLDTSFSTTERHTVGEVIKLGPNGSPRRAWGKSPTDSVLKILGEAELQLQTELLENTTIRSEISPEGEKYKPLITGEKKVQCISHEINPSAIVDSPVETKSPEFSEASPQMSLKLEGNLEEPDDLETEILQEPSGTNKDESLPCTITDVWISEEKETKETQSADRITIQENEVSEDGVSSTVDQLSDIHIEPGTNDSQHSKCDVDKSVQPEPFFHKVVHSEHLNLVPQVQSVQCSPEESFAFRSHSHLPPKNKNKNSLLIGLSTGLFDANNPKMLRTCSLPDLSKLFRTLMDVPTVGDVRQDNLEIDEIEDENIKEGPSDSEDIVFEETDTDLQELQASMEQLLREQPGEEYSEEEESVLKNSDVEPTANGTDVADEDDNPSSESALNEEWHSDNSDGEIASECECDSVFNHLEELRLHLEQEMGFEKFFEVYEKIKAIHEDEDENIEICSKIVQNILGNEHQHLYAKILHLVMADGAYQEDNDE

[11] = target: PRKD2 (human) (UniProt Q9BZL6)
[12] = target: GSK3A (human) (UniProt P49840)
[13] = target: DCLK2 (human) (UniProt Q8N568)
[14] = target: TAOK3 (human) (UniProt Q9H2K8)
[15] = target: BRSK1 (human) (UniProt Q8TDC3)
[16] = target: ITK (human) (UniProt Q08881)
[17] = target: PBK (human) (UniProt Q96KB5)
[18] = target: MAPK12 (human) (UniProt P53778)
[19] = target: CAMK2G (human) (UniProt Q13555)
[20] = target: CSNK1G2 (human) (UniProt P78368)
[21] = target: TEC (human) (UniProt P42680)
[22] = target: TAOK1 (human) (UniProt Q7L7X3)
TAOK1 (human), sequence (Q7L7X3 whole entry, looked up): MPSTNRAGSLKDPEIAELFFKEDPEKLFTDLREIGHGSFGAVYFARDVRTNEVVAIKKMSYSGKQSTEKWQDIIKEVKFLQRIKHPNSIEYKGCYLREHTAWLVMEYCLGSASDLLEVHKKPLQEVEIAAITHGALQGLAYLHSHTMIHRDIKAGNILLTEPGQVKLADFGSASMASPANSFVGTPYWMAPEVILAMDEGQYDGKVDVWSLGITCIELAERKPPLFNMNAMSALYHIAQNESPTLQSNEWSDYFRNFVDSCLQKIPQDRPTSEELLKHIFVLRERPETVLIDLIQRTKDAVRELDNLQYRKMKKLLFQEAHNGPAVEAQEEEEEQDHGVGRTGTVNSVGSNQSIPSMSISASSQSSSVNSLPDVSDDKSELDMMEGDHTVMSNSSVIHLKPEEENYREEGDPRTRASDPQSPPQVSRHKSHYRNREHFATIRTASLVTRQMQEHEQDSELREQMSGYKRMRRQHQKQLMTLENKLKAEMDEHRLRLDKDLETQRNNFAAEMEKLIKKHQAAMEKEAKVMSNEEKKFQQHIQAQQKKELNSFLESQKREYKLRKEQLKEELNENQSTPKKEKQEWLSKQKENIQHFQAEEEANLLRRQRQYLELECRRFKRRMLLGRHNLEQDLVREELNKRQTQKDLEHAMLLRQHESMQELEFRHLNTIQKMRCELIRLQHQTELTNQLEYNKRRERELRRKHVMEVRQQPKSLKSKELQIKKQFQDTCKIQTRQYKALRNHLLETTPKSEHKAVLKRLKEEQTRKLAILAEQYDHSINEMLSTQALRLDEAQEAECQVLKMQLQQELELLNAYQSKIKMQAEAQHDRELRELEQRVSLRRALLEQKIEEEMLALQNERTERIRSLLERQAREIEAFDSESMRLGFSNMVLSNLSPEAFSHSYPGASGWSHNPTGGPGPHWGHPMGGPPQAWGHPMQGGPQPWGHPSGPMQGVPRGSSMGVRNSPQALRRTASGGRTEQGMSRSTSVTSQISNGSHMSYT

[23] = target: STK10 (human) (UniProt O94804)
[24] = target: PRKG2 (human) (UniProt Q13237)
[25] = target: CDK3 CCNE1 (human) (UniProt Q00526+P24864)
CDK3 CCNE1 (human), sequence (P24864 whole entry, looked up): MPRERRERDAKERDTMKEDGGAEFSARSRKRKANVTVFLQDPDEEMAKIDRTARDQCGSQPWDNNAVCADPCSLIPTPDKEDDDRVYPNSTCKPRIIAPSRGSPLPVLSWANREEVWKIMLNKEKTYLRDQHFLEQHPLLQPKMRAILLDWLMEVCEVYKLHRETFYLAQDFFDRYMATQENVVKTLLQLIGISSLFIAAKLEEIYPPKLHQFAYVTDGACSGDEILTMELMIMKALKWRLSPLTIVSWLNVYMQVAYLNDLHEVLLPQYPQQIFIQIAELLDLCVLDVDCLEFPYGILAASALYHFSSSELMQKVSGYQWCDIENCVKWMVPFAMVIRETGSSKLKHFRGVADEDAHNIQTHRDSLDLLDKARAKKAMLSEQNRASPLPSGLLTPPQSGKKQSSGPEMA
CDK3 CCNE1 (human), sequence (Q00526 whole entry, looked up): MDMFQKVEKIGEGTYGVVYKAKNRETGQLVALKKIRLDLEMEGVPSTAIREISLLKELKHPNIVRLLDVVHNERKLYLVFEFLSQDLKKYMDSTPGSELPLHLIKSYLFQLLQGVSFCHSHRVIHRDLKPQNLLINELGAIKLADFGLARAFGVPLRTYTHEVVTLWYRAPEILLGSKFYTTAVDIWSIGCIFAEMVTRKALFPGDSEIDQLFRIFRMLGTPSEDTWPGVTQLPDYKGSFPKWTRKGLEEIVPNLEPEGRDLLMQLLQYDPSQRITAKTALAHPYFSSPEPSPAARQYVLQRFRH

[26] = target: TGFBR2 (human) (UniProt P37173)
[27] = target: SRPK1 (human) (UniProt Q96SB4)
SRPK1 (human), sequence (Q96SB4 whole entry, looked up): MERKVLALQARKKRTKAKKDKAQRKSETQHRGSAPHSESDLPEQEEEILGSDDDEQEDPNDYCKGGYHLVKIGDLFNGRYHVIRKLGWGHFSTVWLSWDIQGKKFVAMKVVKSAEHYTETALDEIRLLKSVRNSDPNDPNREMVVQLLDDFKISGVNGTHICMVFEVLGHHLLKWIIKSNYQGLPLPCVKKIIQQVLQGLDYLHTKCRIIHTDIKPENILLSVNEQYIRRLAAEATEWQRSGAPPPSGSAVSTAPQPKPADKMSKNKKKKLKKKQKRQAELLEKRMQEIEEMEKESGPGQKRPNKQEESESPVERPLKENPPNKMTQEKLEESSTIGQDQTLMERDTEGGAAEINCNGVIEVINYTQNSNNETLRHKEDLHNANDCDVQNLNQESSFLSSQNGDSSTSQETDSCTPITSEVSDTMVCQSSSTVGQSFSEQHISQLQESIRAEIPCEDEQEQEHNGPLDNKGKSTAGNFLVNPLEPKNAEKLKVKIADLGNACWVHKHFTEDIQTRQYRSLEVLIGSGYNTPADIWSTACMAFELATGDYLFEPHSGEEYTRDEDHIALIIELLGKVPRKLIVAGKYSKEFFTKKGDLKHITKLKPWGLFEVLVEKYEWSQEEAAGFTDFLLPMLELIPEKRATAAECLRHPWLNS

[28] = target: MAP4K4 (human) (UniProt O95819)
[29] = target: ACVR1 (human) (UniProt Q04771)
ACVR1 (human), sequence (Q04771 whole entry, looked up): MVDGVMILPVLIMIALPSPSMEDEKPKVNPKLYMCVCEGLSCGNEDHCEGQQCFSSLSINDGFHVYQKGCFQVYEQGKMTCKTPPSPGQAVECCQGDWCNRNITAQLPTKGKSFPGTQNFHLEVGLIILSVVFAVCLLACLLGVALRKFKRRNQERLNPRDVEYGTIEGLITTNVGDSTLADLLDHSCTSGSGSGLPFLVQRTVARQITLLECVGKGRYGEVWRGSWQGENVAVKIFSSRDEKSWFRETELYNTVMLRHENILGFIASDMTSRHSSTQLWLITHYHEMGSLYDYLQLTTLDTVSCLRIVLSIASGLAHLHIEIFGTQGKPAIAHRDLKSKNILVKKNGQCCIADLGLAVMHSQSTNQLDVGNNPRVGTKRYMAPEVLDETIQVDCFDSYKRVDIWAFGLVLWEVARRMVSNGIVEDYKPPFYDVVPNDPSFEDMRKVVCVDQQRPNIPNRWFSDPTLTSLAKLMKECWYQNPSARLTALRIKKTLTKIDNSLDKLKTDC

[30] = target: ABL2 (human) (UniProt P42684)
[31] = target: EPHA5 (human) (UniProt P54756)
[32] = target: MARK3 (human) (UniProt P27448)
[33] = target: CDK6 CCND3 (human) (UniProt P30281+Q00534)
CDK6 CCND3 (human), sequence (P30281 whole entry, looked up): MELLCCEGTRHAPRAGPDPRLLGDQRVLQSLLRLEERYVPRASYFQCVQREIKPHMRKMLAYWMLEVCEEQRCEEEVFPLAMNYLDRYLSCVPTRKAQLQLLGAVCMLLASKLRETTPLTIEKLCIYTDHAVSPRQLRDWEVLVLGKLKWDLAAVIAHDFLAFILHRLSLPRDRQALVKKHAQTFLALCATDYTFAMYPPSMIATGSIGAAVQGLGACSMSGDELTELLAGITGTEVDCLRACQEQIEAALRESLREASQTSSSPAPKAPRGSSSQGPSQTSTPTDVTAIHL
CDK6 CCND3 (human), sequence (Q00534 whole entry, looked up): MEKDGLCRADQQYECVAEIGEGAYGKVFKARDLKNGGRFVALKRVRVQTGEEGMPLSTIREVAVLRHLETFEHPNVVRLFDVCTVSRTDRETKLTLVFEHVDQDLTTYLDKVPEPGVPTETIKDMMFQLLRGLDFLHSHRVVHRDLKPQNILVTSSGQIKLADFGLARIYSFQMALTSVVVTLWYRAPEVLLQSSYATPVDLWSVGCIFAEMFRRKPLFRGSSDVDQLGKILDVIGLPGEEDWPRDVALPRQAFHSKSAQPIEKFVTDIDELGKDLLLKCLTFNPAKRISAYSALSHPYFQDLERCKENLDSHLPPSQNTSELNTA

[34] = target: PASK (human) (UniProt Q96RG2)
[35] = target: PAK4 (human) (UniProt O96013)
[36] = target: CAMK2D (human) (UniProt Q13557)
[37] = target: DAPK2 (human) (UniProt Q9UIK4)
[38] = target: NEK2 (human) (UniProt P51955)
[39] = target: KDR (human) (UniProt P35968)

SMILES | residual activity [1] | residual activity [2] | residual activity [3] | residual activity [4] | residual activity [5] | residual activity [6] | residual activity [7] | residual activity [8] | residual activity [9] | residual activity [10] | residual activity [11] | residual activity [12] | residual activity [13] | residual activity [14] | residual activity [15] | residual activity [16] | residual activity [17] | residual activity [18] | residual activity [19] | residual activity [20] | also measured
O=C1NC(=O)c2c1c1c3ccccc3[nH]c1n1cncc21 | 105% | 57.5% | 31.1% | 75.3% | 33.7% | 87.9% | 102% | 98.5% | 92.7% | 75.2% | 69.4% | 10.4% | 82.3% | 66.9% | 22.5% | 71.4% | 72.4% | 85.9% | 52.3% | 63.4% | residual activity [21]: 96.7%; residual activity [22]: 135%; residual activity [23]: 69%; residual activity [24]: 64.1%; residual activity [25]: 76.7%; residual activity [26]: 95.8%; residual activity [27]: 95.4%; residual activity [28]: 21.2%; residual activity [29]: 103%; residual activity [30]: 79.9%; residual activity [31]: 92%; residual activity [32]: 29.8%; residual activity [33]: 74.3%; residual activity [34]: 33.6%; residual activity [35]: 97.1%; residual activity [36]: 36.7%; residual activity [37]: 43.8%; residual activity [38]: 87.5%; residual activity [39]: 66.6%
O=C(c1cc2cc(O)ccc2[nH]1)c1cc2cc(O)ccc2[nH]1 | 101% | 24.5% | 30.1% | 94.3% | 21.1% | 83.2% | 102% | 99.8% | 97.6% | 93.4% | 71.7% | 75.7% | 88.4% | 66.6% | 53.6% | 77.7% | 100% | 97.9% | 89.5% | 93.8% | residual activity [21]: 105%; residual activity [22]: 85.6%; residual activity [23]: 70.3%; residual activity [24]: 80.6%; residual activity [25]: 85.2%; residual activity [26]: 123%; residual activity [27]: 92.2%; residual activity [28]: 6.63%; residual activity [29]: 123%; residual activity [30]: 27.2%; residual activity [31]: 100%; residual activity [32]: 84.4%; residual activity [33]: 50.3%; residual activity [34]: 78.7%; residual activity [35]: 111%; residual activity [36]: 63.7%; residual activity [37]: 101%; residual activity [38]: 101%; residual activity [39]: 69.9%
CN(C)c1ccc(/C=C2\C(=O)Nc3ccccc32)cc1 | 102% | 88.4% | 78.4% | 98.6% | 82.6% | 102% | 97.7% | 98.3% | 92.1% | 112% | 95.2% | 104% | 100% | 95.1% | 99.6% | 99% | 101% | 102% | 99.6% | 96.7% | residual activity [21]: 103%; residual activity [22]: 94.7%; residual activity [23]: 95.4%; residual activity [24]: 105%; residual activity [25]: 98.7%; residual activity [26]: 124%; residual activity [27]: 95.4%; residual activity [28]: 74.5%; residual activity [29]: 104%; residual activity [30]: 100%; residual activity [31]: 109%; residual activity [32]: 101%; residual activity [33]: 96.4%; residual activity [34]: 95%; residual activity [35]: 101%; residual activity [36]: 96.4%; residual activity [37]: 105%; residual activity [38]: 98.4%; residual activity [39]: 94.3%
